# Measurements taken from patent publication US20220304992A1, “METHODS OF REJUVENATING AGED TISSUE BY INHIBITING 15-HYDROXYPROSTAGLANDIN DEHYDROGENASE (15-PGDH)” (The Board of Trustees of the Leland Stanford Junior …, priority 2019, published 2022).
# Entries after “also recorded” stand apart in the source; their conditions may differ.
# Assays:
# [1] = test system: myotubes; test: Differentiated (starved) cultured myotubes: Atrogin1 expression and diameter; format: cell-based, mouse
# Procedure: For myotubes we performed fixation using 4% PFA, blocking and permeabilization using PBS/1% BSA/0.1% Triton X-100 and staining with primary antibodies anti-MyHC (Thermo Fisher Scientific, catalog #14-6503-82, clone MF-20, 1:500) and then with AlexaFluor secondary Antibodies (Jackson ImmunoResearch Laboratories, 1:500). We counterstained nuclei with DAPI (Invitrogen).
# Primary myoblasts were grown in myogenic cell culture medium containing DMEM/F10 (50:50), 15% FBS, 2.5 ng ml-1 fibroblast growth factor-2 and 1% penicillin-streptomycin. For differentiation experiments, confluent myoblasts were grown in medium containing 5% horse serum, DMEM. […] Myoblasts were isolated from EP4^fl/fl mice and received either a mCherry/Cre lentivirus or a mock infection as previously described (5).
# For cultured myotubes we performed fixation using 4% PFA, blocking and permeabilization using PBS/1% BSA/0.1% Triton X-100 and staining with primary antibodies anti-MYH (Thermo Fisher Scientific, catalog #14-6503-82, clone MF-20, 1:500) and then with AlexaFluor secondary Antibodies (Jackson ImmunoResearch Laboratories, 1:500). We counterstained nuclei with DAPI (Invitrogen). We acquired images using the KEYENCE BZ-X700 all-in-one fluorescence microscope (Keyence) with 20x/0.75 N.A. objectives. We analyzed the fiber area using the Keyence Advanced Analysis Software. For fiber area the entire maximum cross-sectional area of the muscle was quantified or at least 10 fields of LAMININ or WGA stained myofiber cross-sections encompassing over 400 myofibers were captured for each mouse as above. For fiber typing analysis, the MATLAB application SMASH-Semi-Automatic Muscle Analysis Using Segmentation of Histology, was used as previously described (12). Data analyses were blinded. The researchers performing the imaging acquisition and scoring were unaware of treatment condition given to sample groups analyzed.
# Primary murine myoblasts were grown in myogenic cell culture medium containing DMEM/F10 (50:50), 15% FBS, 2.5 ng ml^−1 fibroblast growth factor-2 and 1% penicillin-streptomycin. […] For differentiation experiments, confluent myoblasts were grown in medium containing 5% horse serum, DMEM.
# [2] = test system: AKT/FOXO pathway; test: Immunoblots of human myotubes treated with PGE2; format: cell-based; conditions: PGE2 10 ng/ml, 15 or 30 minutes
# Procedure: Primary murine myoblasts were grown in myogenic cell culture medium containing DMEM/F10 (50:50), 15% FBS, 2.5 ng ml^-1 fibroblast growth factor-2 and 1% penicillin-streptomycin. […] For differentiation experiments, confluent myoblasts were grown in medium containing 5% horse serum, DMEM. […] Total lysates were prepared using lysis buffer (50 mM Tris-HCl pH 7.5, 150 mM NaCl, 4 mM CaCl, 1.5% Triton X-100, protease inhibitors and micrococcal nuclease). […] We used the following antibodies: 15-PGDH (Santa Cruz Biotechnology, cat # sc-271418); phospho-AKT ([…]) (Cell Signaling cat #4060), AKT (Cell signaling cat #2920); phospho-FoxO1 ([…])/FoxO3a ([…]) Antibody (Cell Signaling cat #9464T); Foxo3a (Cell Signaling cat #2497); phospho-CREB (Ser133) (Cell Signaling cat #9198S); phospho-S6 ribosomal protein (Ser235/236) (Cell Signaling cat#4858); SMC1 (Bethyl Laboratories cat# […]). We used HRP conjugated secondary antibodies and developed by incubating the membranes with ECL Western Blotting Substrate (Nacalai USA) and imaging using the ChemiDoc Imaging System (BioRad).
# [3] = test system: murine myotubes; test: Protein synthesis by in vitro SUnSET (puromycin incorporation); format: cell-based, mouse; conditions: PGE2 10 ng/ml daily, 4 d
# Procedure: The SUnSET assay was used to monitor the rate of protein synthesis as previously described (4). Briefly, 10 min prior harvesting the cells, puromycin was added to culture medium at […]. As a control, cycloheximide to block protein translation was added. Cell extracts were then processed for western blotting using anti-puromycin 12D10 antibody (Millipore).
# [4] = test system: cyclic AMP response element binding protein (CREB); test: Immunoblots of muscle lysates after intramuscular PGE2; format: in vivo, mouse; conditions: young mice, 13 nmol i.m., 0, 30 or 60 minutes
# Procedure: (§1) For ABT-263 treatments, 20 month old C57/B16 mice were treated with vehicle (ethanol:polyethylene glycol 400:Phosal 50 PG) or 50 mg/kg/day ABT-263 (in ethanol:polyethylene glycol 400:Phosal 50 PG) by oral gavage for 2 cycles of 1 week with a 2 week rest period between cycles as described previously (5). Intramuscular injection of PGE2 was carried out in young mice with either 13 nmol PGE2 (Cayman Chemicals) or vehicle control (PBS) into the TA muscle. Mouse transgenic strains were purchased from The Jackson Laboratory (EP4^flox/flox; EP4O) No. 028102 (6). We validated these genotypes by appropriate PCR-based strategies. Studies were performed with male mice.
# Total lysates were prepared using lysis buffer (50 mM Tris-HCl pH 7.5, 150 mM NaCl, 4 mM CaCl, 1.5% Triton X-100, protease inhibitors and micrococcal nuclease). For tissue extracts, lysates were homogenized a FastPrep 24 homogenizer (MP Biomedicals) for 40 seconds at a speed of 6 m/s. We used the following antibodies: 15-PGDH (Santa Cruz Biotechnology, cat # sc-271418); phospho-AKT (Ser 473) (Cell Signaling cat #4060), AKT (Cell signaling cat #2920); phospho-FoxO1 (Thr24)/FoxO3a (Thr32) Antibody (Cell Signaling cat #9464T); Foxo3a (Cell Signaling cat #2497); phospho-CREB (Ser133) (Cell Signaling cat #9198S); phospho-S6 ribosomal protein (Ser235/236) (Cell Signaling cat#4858); SMC1 (Bethyl Laboratories cat# A300-055A-T). […]
# [5] = test system: 15-PGDH (Hpgd); test: Senolytic ABT-263 treatment of aged mice: 15-PGDH in muscle; format: in vivo, mouse; conditions: 20 month mice, analyzed 2 months later
# Procedure: For ABT-263 treatments, 20 month old C57/B16 mice were treated with vehicle (ethanol:polyethylene glycol 400:Phosal 50 PG) or ABT-263 (in ethanol:polyethylene glycol 400:Phosal 50 PG) by oral gavage for 2 cycles of 1 week with a 2 week rest period between cycles as described previously (1). For the Duchenne muscular dystrophy (DMD) mouse model, we used 8-10 month old mdx4cv/mTRKO(G2) generated as previously described (2).
# as §1
# We collected and prepared recipient Tibialis anterior (TA) or gastrocnemius (GA) muscle tissues for histology as previously described (6). […]
# [6] = test system: INK-ATTAC mice; test: AP20187 clearance of senescent cells in INK-ATTAC mice; format: in vivo, mouse; conditions: 16-month treatment
# Source text: We performed all experiments and protocols in compliance with the institutional guidelines of Stanford University and Administrative Panel on Laboratory Animal Care (APLAC). Middle aged (18-20 mo.) and aged (>24 mo.) mice C57BL/6 were obtained the US National Institute on Aging (NIA) for aged muscle studies, and young (2-4 mo.) wild-type C57BL/6 mice from Jackson Laboratory. INK-ATTAC mice were generated as previously described (1). INK-ATTAC healthspan assessments. INK-ATTAC mice were crossed onto the C57BL6/J genetic background and maintained in specific-pathogen free housing on a 12-hour dark/light cycle for study duration. At 12 months of age, male mice were either utilized for baseline healthspan assessments and terminal muscle harvest or randomized to receive twice-weekly vehicle or AP20187 (2 mg/kg intraperitoneal injection; B/B homodimerizer, Clontech) until assessment and sacrifice at 28 months of age (2). […] Time and distance to exhaustion was performed as previously described (4) for SW-treated mice and their controls.
# We isolated and enriched myogenic cells as previously described (6-9). Briefly, hindlimb muscles were minced and digested using a collagenase and dispase solution by the MACs Dissociator (Miltenyi). Using FACs, for myogenic stem and progenitor cells we isolated cells negative for the hematopoietic lineage and non-muscle cells (CD45-/CD11b-/CD31-/Scal-) and sorted for a7-integrin*cells markers. For macrophages isolation we sorted a7-/Cd11b+/Cd11c-/F4/80^+ populations. For endothelial cells we sorted a7-/Cd11b-/Cd11c/CD31+. We generated and analyzed flow cytometry scatter plots using FlowJo v10.0.
structure (smiles),measurement,setting,value
CC(C(=O)Nc1cc(C#N)ccc1CCCC(=O)O)c1ccc(F)c2ccccc12 (stereo not shown) [ONO-AE3-208],PGE2-induced increase of myotube diameter in the presence of the antagonist,[1]; ONO-AE3-208 1 μM with PGE2 10 ng/ml,abrogated; also recorded: not seen
"CCCCC[C@H](O)/C=C/[C@H]1[C@H](O)CC(=O)[C@@H]1C/C=C\CCCC(=O)O [PGE2, Prostaglandin E2]",myotube diameter,"[1]; starved (24 hr) or non-starved myotubes, PGE2 10 ng/ml, SW 1 μM",increased; also recorded: marked increase
same,Atrogin1 expression,"[1]; starved myotubes, PGE2 10 ng/ml",greatly decreased
same,FOXO (pFOXO3a),[2],inactivated
same,pAKT levels,[2],increased levels
same,phospho-S6 ribosomal protein (pS6rp),[2],activated
same,protein synthesis quantified by puromycin incorporation,[3],increased
same,CREB activation in skeletal muscles,[4],activates; also recorded: activation
"CC1(C)CCC(c2ccc(Cl)cc2)=C(CN2CCN(c3ccc(C(=O)NS(=O)(=O)c4ccc(N[C@H](CCN5CCOCC5)CSc5ccccc5)c(S(=O)(=O)C(F)(F)F)c4)cc3)CC2)C1 [ABT-263, navitoclax]",15-PGDH (Hpgd) mRNA / gene expression levels in muscle,"[5]; 50 mg/kg/day oral gavage, 2 cycles, 50 mg/kg/day",reduced; also recorded: markedly decreased
same,percentage of cells expressing 15-PGDH by immunohistochemistry,[5],markedly decreased
CC[C@H](C(=O)N1CCCC[C@H]1C(=O)O[C@H](CCc1ccc(OC)c(OC)c1)c1cccc(OCC(=O)NCC(CNC(=O)COc2cccc([C@@H](CCc3ccc(OC)c(OC)c3)OC(=O)[C@@H]3CCCCN3C(=O)[C@@H](CC)c3cc(OC)c(OC)c(OC)c3)c2)CN(C)C)c1)c1cc(OC)c(OC)c(OC)c1 [AP],15-PGDH levels in FACS isolated macrophages,[6],reduced levels
same,PGE2 levels in muscle by LC-MS/MS,[6],increase
same,15-PGDH transcript levels in muscle,[6]; 2 mg/kg i.p. twice weekly,markedly reduced
same,endurance (distance run on a treadmill until exhaustion and body weight),[6]; 28 months,increase
same,grip strength,[6]; 28 months,increase
same,hindlimb muscle mass (TA and GA),[6]; 28 months,increase
